Holding throughout (type): cell-based
One data set has as its target T1, BCRP (ABCG2) (Homo sapiens, UniProt Q9UNQ0).
T1 sequence (Q9UNQ0 whole entry): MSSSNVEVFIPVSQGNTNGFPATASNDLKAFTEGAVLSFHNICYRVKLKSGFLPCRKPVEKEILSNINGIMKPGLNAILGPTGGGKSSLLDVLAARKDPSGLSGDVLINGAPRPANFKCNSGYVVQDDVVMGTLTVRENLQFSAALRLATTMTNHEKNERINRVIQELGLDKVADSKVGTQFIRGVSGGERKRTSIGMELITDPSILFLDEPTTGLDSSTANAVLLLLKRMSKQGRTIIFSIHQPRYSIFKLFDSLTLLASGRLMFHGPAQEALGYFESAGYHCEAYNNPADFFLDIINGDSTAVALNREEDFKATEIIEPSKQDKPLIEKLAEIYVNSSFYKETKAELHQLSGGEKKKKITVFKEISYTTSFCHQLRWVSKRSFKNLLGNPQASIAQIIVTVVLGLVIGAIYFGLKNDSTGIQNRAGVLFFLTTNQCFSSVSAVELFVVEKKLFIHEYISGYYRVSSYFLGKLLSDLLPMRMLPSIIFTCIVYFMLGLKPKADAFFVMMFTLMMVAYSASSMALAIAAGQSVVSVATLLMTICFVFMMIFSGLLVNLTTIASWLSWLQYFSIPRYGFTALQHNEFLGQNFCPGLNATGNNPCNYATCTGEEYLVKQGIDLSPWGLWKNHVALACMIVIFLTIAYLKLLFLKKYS
Briefly: Inhibition of BCRP expressed in human HEK293 cells assessed as maximal mitoxantrone accumulation at 20 uM relative control. The conditions noted are these: HEK293 cells that express BCRP, probe mitoxantrone, read-out: Activity.

The target in data set [1] is T2, Broad substrate specificity ATP-binding cassette transporter ABCG2 (Homo sapiens, UniProt Q9UNQ0).
T2 sequence (Q9UNQ0 whole entry): T1 sequence (Q9UNQ0 whole entry)
Description: Inhibition of BCRP expressed in human HEK293 cells assessed as maximal mitoxantrone accumulation at 10 uM relative control. Also noted: scale not given: the % may be the effect or the level left. The following applies: hek293, 10 µM.

Data set [2] addresses T2, Broad substrate specificity ATP-binding cassette transporter ABCG2. Description: Inhibition of BCRP expressed in human HEK293 cells assessed as maximal mitoxantrone accumulation at 5 uM relative control. Also noted: scale not given: the % may be the effect or the level left. The following applies: hek293, 5 µM.
Data set [3] shares this target. Briefly: Inhibition of BCRP expressed in human HEK293 cells assessed as maximal mitoxantrone accumulation.

One may read the IC50 as the concentration that gives 50% inhibition.

With `COc1cc2oc3c(c(=O)c2c(O)c1C)-c1cccc(O)c1OC3O` (stereo not drawn) [9-O-METHYL-4-HYDROXYBOERAVINONE B], on BCRP (ABCG2), the Emax at 20 µM was determined as 15%.
Take `COC1Oc2ccccc2-c2c1oc1cc(O)c(C)c(O)c1c2=O` (stereo not drawn) [BOERAVINONE A]: in data set [1], the Activity was 27%.
Still for that read-out and setting: as for `Cc1c(O)cc2oc3c(c(=O)c2c1O)-c1ccccc1OC3O` (stereo not drawn) [BOERAVINONE B], the figure is 55%; as for `COc1cc2c(c(O)c1C)C(=O)[C@]1(O)c3cccc(O)c3OC[C@H]1O2` [BOERAVINONE C], 31%; as for `Cc1c(O)cc2oc3c(c(=O)c2c1O)-c1ccc(O)cc1OC3O` (stereo not drawn) [BOERAVINONE E], 56%.
As for `COc1cc(O)c2c(=O)c3c(oc2c1)C(OC)Oc1c(O)cccc1-3` (stereo not drawn) [BOERAVINONE G], the Activity in data set [2] is 92%. The IC50 in data set [3] was 0.7 µM.
On the same counts, the results for `COc1cc2oc3c(c(=O)c2c(O)c1C)-c1cccc(O)c1OC3OC` (stereo not drawn) [BOERAVINONE H] are 68% and 2.5 µM.
On to `COc1c(C)c(O)c2c(=O)c3c(oc2c1O)C(O)Oc1ccccc1-3` (stereo not drawn) [BOERAVINONE I], for which the Emax at 20 µM at BCRP (ABCG2) was 12%.
With `Cc1c(O)cc2oc3oc4cc(O)ccc4c3c(=O)c2c1O` [BOERAVINONE J], the Emax at 20 µM at BCRP (ABCG2) was found to be 15%.
Consider `O=c1c2c(oc3cc(O)cc(O)c13)C(O)Oc1ccccc1-2` (stereo not drawn) [COCCINEONE B], for which, in data set [1], the Activity came to 29%.
`COc1cc2c(c(O)c1OC)C(=O)[C@]1(O)c3ccccc3OC[C@H]1O2` [COCCINEONE E]: the Activity in data set [1] is 15%.

The record behind these values is ChEMBL document CHEMBL1142979, “Nonprenylated rotenoids, a new class of potent breast cancer resistance protein inhibitors” (J Med Chem, 2007).
